Measured values reported in patent publication US20260274892A1, “MACROCYCLIC BROAD SPECTRUM ANTIBIOTICS” (RQx Pharmaceuticals, Inc., priority 2017, published 2026).

Legend:
[1] = test system: Methicillin Resistant Staphylococcus aureus strain USA 200; test: Minimum inhibitory concentration (MIC), CLSI broth micro-dilution, S. aureus; type: cell-based; settings: Staphylococcus aureus, MRSA / USA200; Table 6; MRSA USA 200; cation adjusted Mueller Hinton Broth + 0.002% Tween-80; 35° C., 22 hours
Summary of the method: (§1)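 Antibacterial potency is measured as MIC by the CLSI broth dilution method. Bacteria at OD600 0.0005 in Tween-80-supplemented cation-adjusted Mueller Hinton broth face ten twofold compound dilutions for 22 h at 35° C.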

[2] = test system: Escherichia coli ATCC 25922; test: Minimum inhibitory concentration (MIC), CLSI broth micro-dilution, E. coli; type: cell-based; settings: Escherichia coli, ATCC25922, 22 h, Table 6, cation adjusted Mueller Hinton Broth + 0.002% Tween-80, 35° C.
Summary of the method: as §1

SMILES	MIC [1] [µM]	MIC [2] [µM]
C[C@@H]1NC(=O)[C@@H](N(C)C(=O)[C@H](CCN)NC(=O)c2cnc(-c3ccc(C(C)(C)C)cc3)nc2O)c2ccc(OCCN)c(c2)-c2cc(ccc2OCCN)C[C@@H](C(=O)NCC#N)NC1=O (racemic) [Compound 419, rac-(8S,11S,14S)-3,18-bis(2-aminoethoxy)-N-(cyanomethyl)-11-methyl-14-[methyl-[rac-(2S)-4-amino-2-[[2-(4-tert-butylphenyl)-4-hydroxy-pyrimidine-5-carbonyl]amino]butanoyl]amino]-10,13-dioxo-9,12-diazatricyclo[13.3.1.12,6]icosa-1(18),2(20),3,5,15(19),16-hexaene-8-carboxamide]	0.063	8
CCCCCc1ccc(-c2nc(C)c(C(=O)N[C@@H](CCN)C(=O)N(C)[C@@H]3C(=O)N[C@@H](C)C(=O)N[C@H](C(=O)NCC#N)Cc4ccc(OCCN)c(c4)-c4cc3ccc4OCCN)c(C)n2)cc1 (racemic) [Compound 513, rac-(8S,11S,14S)-3,18-bis(2-aminoethoxy)-N-(cyanomethyl)-11-methyl-14-[methyl-[rac-(2S)-4-amino-2-[[4,6-dimethyl-2-(4-pentylphenyl)pyrimidine-5-carbonyl]amino]butanoyl]amino]-10,13-dioxo-9,12-diazatricyclo[13.3.1.12,6]icosa-1(18),2(20),3,5,15(19),16-hexaene-8-carboxamide]	0.0061	0.097
CCCOc1ccc(-c2nc(C)c(C(=O)N[C@@H](CCN)C(=O)N(C)[C@@H]3C(=O)N[C@@H](C)C(=O)N[C@H](C(=O)NCC#N)Cc4ccc(OCCN)c(c4)-c4cc3ccc4OCCN)c(C)n2)cc1 (racemic) [Compound 330, rac-(8S,11S,14S)-3,18-bis(2-aminoethoxy)-N-(cyanomethyl)-11-methyl-14-[methyl-[rac-(2S)-4-amino-2-[[4,6-dimethyl-2-(4-propoxyphenyl)pyrimidine-5-carbonyl]amino]butanoyl]amino]-10,13-dioxo-9,12-diazatricyclo[13.3.1.12,6]icosa-1(18),2(20),3,5,15(19),16-hexaene-8-carboxamide]	0.033	0.26
Cc1nc(-c2ccc(OC3C[C@@H]4CC[C@H]3C4)cc2)nc(C)c1C(=O)N[C@@H](CCN)C(=O)N(C)[C@@H]1C(=O)N[C@@H](C)C(=O)N[C@H](C(=O)NCC#N)Cc2ccc(OCCN)c(c2)-c2cc1ccc2OCCN (mixture of isomers) [Compound 350, rac-(8S,11S,14S)-3,18-bis(2-aminoethoxy)-N-(cyanomethyl)-11-methyl-14-[methyl-[rac-(2S)-4-amino-2-[[4,6-dimethyl-2-[4-[rac-(1S,4R)-norboman-2-yl]oxyphenyl]pyrimidine-5-carbonyl]amino]butanoyl]amino]-10,13-dioxo-9,12-diazatricyclo[13.3.1.12,6]icosa-1(18),2(20),3,5,15(19),16-hexaene-8-carboxamide]	0.016	0.094
CCCCCOC1CCN(c2nc(C)c(C(=O)N[C@@H](CCN)C(=O)N(C)[C@@H]3C(=O)N[C@@H](C)C(=O)N[C@H](C(=O)NCC#N)Cc4ccc(OCCN)c(c4)-c4cc3ccc4OCCN)c(C)n2)CC1 (racemic) [Compound 317, rac-(8S,11S,14S)-3,18-bis(2-aminoethoxy)-N-(cyanomethyl)-11-methyl-14-[methyl-[rac-(2S)-4-amino-2-[[4,6-dimethyl-2-(4-pentoxy-1-piperidyl)pyrimidine-5-carbonyl]amino]butanoyl]amino]-10,13-dioxo-9,12-diazatricyclo[13.3.1.12,6]icosa-1(18),2(20),3,5,15(19),16-hexaene-8-carboxamide]	0.047	0.5
CCC(C)(C)c1ccc(-c2ncc(C(=O)N[C@@H](CCN)C(=O)N(C)[C@@H]3C(=O)N[C@@H](C)C(=O)N[C@H](C(=O)NCC#N)Cc4ccc(O)c(c4)-c4cc3ccc4OCCN)c(C)n2)cc1 (racemic) [Compound 535, rac-(8S,11S,14S)-18-(2-aminoethoxy)-N-(cyanomethyl)-3-hydroxy-11-methyl-14-[methyl-[rac-(2S)-4-amino-2-[[2-[4-(1,1-dimethylpropyl)phenyl]-4-methyl-pyrimidine-5-carbonyl]amino]butanoyl]amino]-10,13-dioxo-9,12-diazatricyclo[13.3.1.12,6]icosa-1(18),2(20),3,5,15(19),16-hexaene-8-carboxamide]	0.029	0.23
CCCc1nc(-c2ccc(C(C)(C)C)cc2)nc(C)c1C(=O)N[C@@H](CCN)C(=O)N(C)[C@@H]1C(=O)N[C@@H](C)C(=O)N[C@H](C(=O)NCC#N)Cc2ccc(OCCN)c(c2)-c2cc1ccc2OCCN [Compound 486]	0.023	0.38
CCCC(F)(F)c1ccc(-c2nc(C)c(C(=O)N[C@@H](CCN)C(=O)N(C)[C@@H]3C(=O)N[C@@H](C)C(=O)N[C@H](C(=O)NCC#N)Cc4ccc(OCCN)c(c4)-c4cc3ccc4OCCN)c(C)n2)cc1 (racemic) [Compound 294, rac-(8S,11S,14S)-3,18-bis(2-aminoethoxy)-N-(cyanomethyl)-11-methyl-14-[methyl-[rac-(2S)-4-amino-2-[[2-[4-(1,1-difluorobutyl)phenyl]-4,6-dimethyl-pyrimidine-5-carbonyl]amino]butanoyl]amino]-10,13-dioxo-9,12-diazatricyclo[13.3.1.12,6]icosa-1(18),2(20),3,5,15(19),16-hexaene-8-carboxamide]	0.031	0.19
Cc1nc(N2CCC(C(C)(C)C)CC2)nc(C)c1C(=O)N[C@@H](CCN)C(=O)N(C)[C@@H]1C(=O)N[C@@H](C)C(=O)N[C@H](C(=O)NCC#N)Cc2ccc(OCCN)c(c2)-c2cc1ccc2OCCN (racemic) [Compound 315, rac-(8S,11S,14S)-3,18-bis(2-aminoethoxy)-N-(cyanomethyl)-11-methyl-14-[methyl-[rac-(2S)-4-amino-2-[[2-(4-tert-butyl-1-piperidyl)-4,6-dimethyl-pyrimidine-5-carbonyl]amino]butanoyl]amino]-10,13-dioxo-9,12-diazatricyclo[13.3.1.12,6]icosa-1(18),2(20),3,5,15(19),16-hexaene-8-carboxamide]	0.016	0.25
Cc1nc(C#CC(C)(C)C)nc(C)c1C(=O)N[C@@H](CCN)C(=O)N(C)[C@@H]1C(=O)N[C@@H](C)C(=O)N[C@H](C(=O)NCC#N)Cc2ccc(OCCN)c(c2)-c2cc1ccc2OCCN (racemic) [Compound 306, rac-(8S,11S,14S)-3,18-bis(2-aminoethoxy)-N-(cyanomethyl)-11-methyl-14-[methyl-[rac-(2S)-4-amino-2-[[2-(3,3-dimethylbut-1-ynyl)-4,6-dimethyl-pyrimidine-5-carbonyl]amino]butanoyl]amino]-10,13-dioxo-9,12-diazatricyclo[13.3.1.12,6]icosa-1(18),2(20),3,5,15(19),16-hexaene-8-carboxamide]	0.84	14
Cc1nc(-c2ccc(C3(C)CC3)cc2)nc(C)c1C(=O)N[C@@H](CCN)C(=O)N(C)[C@@H]1C(=O)N[C@@H](C)C(=O)N[C@H](C(=O)NCC#N)Cc2ccc(O)c(c2)-c2cc1ccc2OCCN (racemic) [Compound 543, rac-(8S,11S,14S)-18-(2-aminoethoxy)-N-(cyanomethyl)-3-hydroxy-11-methyl-14-[methyl-[rac-(2S)-4-amino-2-[[4,6-dimethyl-2-[4-(1-methylcyclopropyl)phenyl]pyrimidine-5-carbonyl]amino]butanoyl]amino]-10,13-dioxo-9,12-diazatricyclo[13.3.1.12,6]icosa-1(18),2(20),3,5,15(19),16-hexaene-8-carboxamide]	0.063	0.35
Cc1nc(-c2ccc3c(c2)CCCC3)nc(C)c1C(=O)N[C@@H](CCN)C(=O)N(C)[C@@H]1C(=O)N[C@@H](C)C(=O)N[C@H](C(=O)NCC#N)Cc2ccc(OCCN)c(c2)-c2cc1ccc2OCCN (racemic) [Compound 259, rac-(8S,11S,14S)-3,18-bis(2-aminoethoxy)-N-(cyanomethyl)-11-methyl-14-[methyl-[rac-(2S)-4-amino-2-[(4,6-dimethyl-2-tetralin-6-yl-pyrimidine-5-carbonyl)amino]butanoyl]amino]-10,13-dioxo-9,12-diazatricyclo[13.3.1.12,6]icosa-1(18),2(20),3,5,15(19),16-hexaene-8-carboxamide]	0.025	0.26
Cc1nc(-c2ccc(C(C)(C)C)cc2)cc(N)c1C(=O)N[C@@H](CCN)C(=O)N(C)[C@@H]1C(=O)N[C@@H](C)C(=O)N[C@H](C(=O)NCC#N)Cc2ccc(OCCN)c(c2)-c2cc1ccc2OCCN (racemic) [Compound 413, rac-(8S,11S,14S)-3,18-bis(2-aminoethoxy)-N-(cyanomethyl)-11-methyl-14-[methyl-[rac-(2S)-4-amino-2-[[4-amino-6-(4-tert-butylphenyl)-2-methyl-pyridine-3-carbonyl]amino]butanoyl]amino]-10,13-dioxo-9,12-diazatricyclo[13.3.1.12,6]icosa-1(18),2(20),3,5,15(19),16-hexaene-8-carboxamide]	0.016	0.13
Cc1nc(-c2ccc(C(C)(C)C)cc2)nc(C)c1C(=O)N[C@@H](C)C(=O)N[C@@H](CCN)C(=O)N(C)[C@@H]1C(=O)N[C@@H](C)C(=O)N[C@H](C(=O)NCC#N)Cc2ccc(OCCN)c(c2)-c2cc1ccc2OCCN (racemic) [Compound 464, rac-(8S,11S,14S)-3,18-bis(2-aminoethoxy)-N-(cyanomethyl)-11-methyl-14-[methyl-[rac-(2S)-4-amino-2-[[rac-(2S)-2-[[2-(4-tert-butylphenyl)-4,6-dimethyl-pyrimidine-5-carbonyl]amino]propanoyl]amino]butanoyl]amino]-10,13-dioxo-9,12-diazatricyclo[13.3.1.12,6]icosa-1(18),2(20),3,5,15(19),16-hexaene-8-carboxamide]	0.063	4
